Experimental data published in patent US11555012B2 (Nimbus Artemis, Inc., priority 2018, dated 2023).

biological target: ACL (Homo sapiens (Human), UniProt P53396); assay: ADP-Glo Assay; settings: not given
Sequence (P53396 other isoform, or with tags, fused parts or gaps isoform P53396-2): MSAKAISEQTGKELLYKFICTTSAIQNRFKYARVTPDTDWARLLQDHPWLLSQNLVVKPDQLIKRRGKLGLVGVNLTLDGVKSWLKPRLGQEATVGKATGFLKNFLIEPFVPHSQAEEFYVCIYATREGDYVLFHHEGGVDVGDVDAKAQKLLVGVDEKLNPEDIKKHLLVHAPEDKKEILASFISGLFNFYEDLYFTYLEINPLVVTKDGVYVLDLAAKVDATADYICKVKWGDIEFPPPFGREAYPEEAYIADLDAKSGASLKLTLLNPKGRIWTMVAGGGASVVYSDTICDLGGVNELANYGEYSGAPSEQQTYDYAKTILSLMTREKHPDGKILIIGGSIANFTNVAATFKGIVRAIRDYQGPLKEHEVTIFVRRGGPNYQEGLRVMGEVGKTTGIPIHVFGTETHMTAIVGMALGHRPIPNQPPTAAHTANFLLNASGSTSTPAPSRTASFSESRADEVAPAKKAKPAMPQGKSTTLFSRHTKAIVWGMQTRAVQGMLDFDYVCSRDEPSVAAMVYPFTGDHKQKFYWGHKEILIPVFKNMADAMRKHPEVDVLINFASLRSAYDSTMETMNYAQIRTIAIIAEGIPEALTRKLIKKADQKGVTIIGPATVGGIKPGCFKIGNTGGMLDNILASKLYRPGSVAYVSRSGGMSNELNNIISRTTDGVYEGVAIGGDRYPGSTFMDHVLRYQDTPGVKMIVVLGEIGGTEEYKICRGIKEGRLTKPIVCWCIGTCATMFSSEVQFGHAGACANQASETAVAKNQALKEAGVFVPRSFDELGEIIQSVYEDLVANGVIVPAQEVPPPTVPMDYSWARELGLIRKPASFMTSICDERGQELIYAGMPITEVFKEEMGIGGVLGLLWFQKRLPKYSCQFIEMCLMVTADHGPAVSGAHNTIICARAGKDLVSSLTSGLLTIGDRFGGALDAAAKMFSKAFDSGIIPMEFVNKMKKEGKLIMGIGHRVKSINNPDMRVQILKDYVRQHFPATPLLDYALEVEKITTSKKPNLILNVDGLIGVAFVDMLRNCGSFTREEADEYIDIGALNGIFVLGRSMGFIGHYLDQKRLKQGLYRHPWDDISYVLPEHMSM

| Structure (SMILES) | IC50 |
| --- | --- |
| CC(C)(C)OC(=O)COc1c(Cl)cc(C(=O)N2CCC2)cc1S(=O)(=O)Nc1cc(-c2ccccc2)c(F)cc1F [I-387, tert-butyl 2-[4-(azetidine-1-carbonyl)-2-chloro-6-([4,6-difluoro-[1,1-biphenyl]-3-yl]sulfamoyl)phenoxy]acetate] | > 20 µM |
| O=C(O)c1ccc(NS(=O)(=O)c2cc(Cl)cc(Cl)c2O)cc1Cl [I-412, 2-chloro-4-[(3,5-dichloro-2-hydroxybenzene)sulfonamido]benzoic acid] | > 20 µM |
| COC(=O)Cc1ccc(-c2ccccc2)cc1NS(=O)(=O)c1cc(Cl)cc(Cl)c1 [I-530, methyl 2-(3-((3,5-dichlorophenyl)sulfonamido)-[1,1′-biphenyl]-4-yl)acetate] | > 20 µM |
| COc1c(Cl)cc(Cl)cc1S(=O)(=O)Nc1cc(C(=O)O)ccc1F [I-413, 3-[(3,5-dichloro-2-methoxybenzene)sulfonamido]-4-fluorobenzoic Acid] | > 20 µM |
| Cn1cc(Cl)cc(S(=O)(=O)Nc2cc(-c3ccccc3)ccc2F)c1=O [I-415, 5-chloro-N-(2-fluoro-5-phenylphenyl)-1-methyl-2-oxo-1,2-dihydropyridine-3-sulfonamide] | > 20 µM |
| CO[C@H]1CCN(C(=O)c2cc(Cl)cc(S(=O)(=O)Nc3cc(-c4ccccc4)c(F)cc3F)c2)C1 [I-389, (S)-3-chloro-N-(4,6-difluoro-[1,1′-biphenyl]-3-yl)-5-(3-methoxypyrrolidine-1-carbonyl)benzenesulfonamide] | > 20 µM |
| O=C(O)c1cc(Cl)c(O)c(S(=O)(=O)Nc2cc(-c3ccccc3)ccn2)c1 [I-536] | > 20 µM |
| COc1ccc(-c2ccccc2)cc1NS(=O)(=O)c1cc(C(=O)O)cs1 [I-408, 5-(N-(4-methoxy-[1,1′-biphenyl]-3-yl)sulfamoyl) thiophene-3-carboxylic acid] | > 20 µM |
| CCC(=O)Nc1c(Cl)cc(Cl)cc1S(=O)(=O)Nc1cc(-c2ccccc2)ccc1OC [I-440, N-[2,4-dichloro-6-[(2-methoxy-5-phenylphenyl)sulfamoyl]phenyl]propanamide] | > 20 µM |
| N#Cc1cc(S(=O)(=O)Nc2cc(-c3ccccc3)c(F)cc2F)ccc1F [I-381, 3-cyano-N-(4,6-difluoro-[1,1′-biphenyl]-3-yl)-4-fluorobenzenesulfonamide] | > 20 µM |
| COc1ccc(-c2cccnc2)cc1NS(=O)(=O)c1cc(C(=O)O)cc(Cl)c1OC [I-425, 3-chloro-4-methoxy-5-(N-(2-methoxy-5-(pyridin-3-yl)phenyl)sulfamoyl)benzoic Acid] | > 20 µM |
| O=S(=O)(Nc1cccc2cccc(F)c12)c1cc(Cl)cc(Cl)c1O [I-186] | 0.5 to 20 µM |
| COc1ccc(C(=O)O)cc1S(=O)(=O)Nc1cc(-c2ccccc2)c(F)cc1F [I-529, 3-(N-(4,6-difluoro-[1,1′-biphenyl]-3-yl)sulfamoyl)-4-methoxybenzoic acid] | > 20 µM |
| O=C(O)c1ccc(-c2ccccc2)cc1NS(=O)(=O)c1cccc(Cl)c1 [I-273, 3-((3-chlorophenyl)sulfonamido)-[1,1′-biphenyl]-4-carboxylic acid] | 0.5 to 20 µM |
| Nc1cc(-c2ccccc2)ccc1NS(=O)(=O)c1cc(Cl)cc(Br)c1O [I-57, N-(2-amino-4-phenylphenyl)-3-bromo-5-chloro-2-hydroxybenzene-1-sulfonamide] | 0.5 to 20 µM |
| COc1ccc(C)cc1S(=O)(=O)Nc1cc(-c2ccccc2)ccc1C(=O)O [I-313, 3-((2-methoxy-5-methylphenyl)sulfonamido)-[1,1′-biphenyl]-4-carboxylic Acid] | 0.5 to 20 µM |
| CCS(=O)(=O)Nc1ccc(S(=O)(=O)Nc2cc(-c3ccccc3)ccc2F)c(OC)c1 [I-523, 4-(ethylsulfonamido)-N-(4-fluoro-[1,1′-biphenyl]-3-yl)-2-methoxybenzenesulfonamide] | > 20 µM |
| CS(=O)(=O)NC(=O)c1ccc(F)c(NS(=O)(=O)c2cc(Cl)cc(Cl)c2O)c1 [I-423, 3-[(3,5-dichloro-2-hydroxybenzene)sulfonamido]-4-fluoro-N-methanesulfonylbenzamide] | > 20 µM |
| COc1ccc(C(=O)O)cc1NS(=O)(=O)c1cc(Cl)cc(Cl)c1O [I-404, 3-((3,5-dichloro-2-hydroxyphenyl)sulfonamido)-4-methoxybenzoic acid] | > 20 µM |
| O=S(=O)(Nc1cc(-c2ccccc2)ccc1F)c1cccc2cc[nH]c12 [I-377, N-[4-fluoro-[1,1-biphenyl]-3-yl]-1H-indole-7-sulfonamide] | > 20 µM |
| CO[C@@H]1CCN(C(=O)c2cc(Cl)cc(S(=O)(=O)Nc3cc(-c4ccccc4)c(F)cc3F)c2)C1 [I-388, (R)-3-chloro-N-(4,6-difluoro-[1,1′-biphenyl]-3-yl)-5-(3-methoxypyrrolidine-1-carbonyl)benzenesulfonamide] | > 20 µM |

More lines, now with the values ahead:

| IC50 | Structure (SMILES) |
| --- | --- |
| 0.5 to 20 µM | CN(C)C(=O)C(NS(=O)(=O)c1cc(Cl)cc(Cl)c1O)c1ccccc1 (stereo not shown) [I-179] |
| 0.5 to 20 µM | O=C(Cc1cc(Cl)cc(Cl)c1)Nc1cc(-c2ccccc2)ccc1C(=O)O [I-280, 3-(2-(3,5-dichlorophenyl)acetamido)-[1,1′-biphenyl]-4-carboxylic Acid] |
| 0.5 to 20 µM | Cc1ccc(C(=O)O)c(NS(=O)(=O)c2cc(Cl)cc(Cl)c2)c1 [I-321, 2-((3,5-dichlorophenyl)sulfonamido)-4-methylbenzoic Acid] |
| 0.5 to 20 µM | CC(C)(C)OC(=O)COc1ccc(-c2ccccc2)cc1NS(=O)(=O)c1cc(Cl)cc(Cl)c1O [I-214, tert-butyl 2-[[3-(3,5-dichloro-2-hydroxybenzenesulfonamido)-[1,1-biphenyl]-4-yl]oxy]acetate] |
| 0.5 to 20 µM | O=S(=O)(Nc1cc(-c2ccccc2)ccc1F)c1cc(Cl)cc(Cl)c1OC1COC1 [I-122, 3,5-dichloro-N-(4-fluoro-[1,1′-biphenyl]-3-yl)-2-(oxetan-3-yloxy)benzenesulfonamide] |
| 0.05 to 0.5 µM | O=C(O)c1cc(Cl)c(O)c(S(=O)(=O)Nc2cc(-c3cc4ccccc4s3)c(F)cc2F)c1 [I-507, 3-(N-(5-(benzo[b]thiophen-2-yl)-2,4-difluorophenyl)sulfamoyl)-5-chloro-4-hydroxybenzoic Acid] |
| 0.5 to 20 µM | CCS(=O)(=O)Nc1cc(OC)ccc1S(=O)(=O)Nc1cc(-c2ccccc2)ccc1F [I-254] |
| 0.5 to 20 µM | CC(NS(=O)(=O)c1cc(Cl)cc(Cl)c1O)c1ccc2c(c1)NC(=O)CO2 (stereo not shown) [I-184] |
| 0.5 to 20 µM | COC(=O)c1cc(Cl)c(OC)c(S(=O)(=O)Nc2cc(-c3ccccc3)c(F)cc2F)c1 [I-63, Methyl 3-chloro-5-(N-(4,6-difluoro-[1,1′-biphenyl]-3-yl)sulfamoyl)-4-methoxybenzoate] |
| 0.5 to 20 µM | O=S(=O)(Nc1cc(-c2ccccc2)c(F)cc1F)c1cccc(-c2nn[nH]n2)c1 [I-96, N-(2,4-difluoro-5-phenylphenyl)-3-(2H-1,2,3,4-tetrazol-5-yl)benzene-1-sulfonamide] |
| 0.5 to 20 µM | CC(C)Oc1ccc(F)cc1NS(=O)(=O)c1cc(Cl)cc(Cl)c1O [I-163] |
| 0.5 to 20 µM | O=C(c1cc(Cl)c(O)c(NS(=O)(=O)c2cc(-c3ccccc3)ccc2F)c1)N1CCC1 [I-215, N-[5-(azetidine-1-carbonyl)-3-chloro-2-hydroxyphenyl]-4-fluoro-[1,1-biphenyl]-3-sulfonamide] |

same assay, conditions: read-out: ACL-ADP-Glo (IC50); 3 nM ACL, 15 μM ATP, 3 μM CoA, 300 μM Citrate

| Structure (SMILES) | IC50 |
| --- | --- |
| O=C(O)c1ccc(-c2ccccc2)cc1NCc1cc(Cl)cc(Cl)c1 [I-371, 3-((3,5-dichlorobenzyl)amino)-[1,1′-biphenyl]-4-carboxylic Acid] | 0.5 to 20 µM |
